From ChEMBL document CHEMBL5291721, “A preclinical secondary pharmacology resource illuminates target-adverse drug reaction associations of marketed drugs” (Nat Commun, 2023)

Columns and labels:
[1] = target: Growth hormone secretagogue receptor type 1 (Homo sapiens, UniProt Q92847)
[2] = target: T1, Alpha-2C adrenergic receptor (Homo sapiens, UniProt P18825); assay type: functional
T1 sequence (P18825 whole entry): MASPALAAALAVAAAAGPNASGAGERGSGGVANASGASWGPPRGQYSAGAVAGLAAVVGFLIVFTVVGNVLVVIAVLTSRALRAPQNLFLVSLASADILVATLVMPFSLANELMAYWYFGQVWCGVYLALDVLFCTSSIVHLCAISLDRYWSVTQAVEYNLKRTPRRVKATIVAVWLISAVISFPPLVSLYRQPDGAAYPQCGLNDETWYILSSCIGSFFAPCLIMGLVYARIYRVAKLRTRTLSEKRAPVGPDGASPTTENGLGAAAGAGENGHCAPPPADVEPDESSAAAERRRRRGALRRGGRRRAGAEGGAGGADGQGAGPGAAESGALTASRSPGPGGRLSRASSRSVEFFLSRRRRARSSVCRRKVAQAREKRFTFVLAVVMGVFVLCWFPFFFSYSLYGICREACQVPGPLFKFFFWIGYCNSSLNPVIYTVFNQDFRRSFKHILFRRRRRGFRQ

[3] = target: Sodium-dependent noradrenaline transporter (Homo sapiens, UniProt P23975)
Sodium-dependent noradrenaline transporter, sequence (P23975 whole entry): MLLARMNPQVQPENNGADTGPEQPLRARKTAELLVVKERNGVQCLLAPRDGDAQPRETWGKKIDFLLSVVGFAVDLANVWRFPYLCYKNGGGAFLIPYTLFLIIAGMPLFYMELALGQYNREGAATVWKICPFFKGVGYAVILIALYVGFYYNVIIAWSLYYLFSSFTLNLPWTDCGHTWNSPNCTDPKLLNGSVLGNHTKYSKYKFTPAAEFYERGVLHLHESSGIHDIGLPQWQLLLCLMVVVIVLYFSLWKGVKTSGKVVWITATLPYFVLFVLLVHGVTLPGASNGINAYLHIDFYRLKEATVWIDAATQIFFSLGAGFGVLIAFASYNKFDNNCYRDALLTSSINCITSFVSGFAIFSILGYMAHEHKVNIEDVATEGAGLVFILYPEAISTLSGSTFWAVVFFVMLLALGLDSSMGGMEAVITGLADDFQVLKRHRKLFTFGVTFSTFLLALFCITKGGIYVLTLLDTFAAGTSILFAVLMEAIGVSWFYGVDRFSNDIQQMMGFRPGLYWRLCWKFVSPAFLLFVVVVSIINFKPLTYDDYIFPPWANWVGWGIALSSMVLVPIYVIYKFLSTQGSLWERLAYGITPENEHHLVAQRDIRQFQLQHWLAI

[4] = target: cGMP-inhibited 3',5'-cyclic phosphodiesterase 3A (Homo sapiens, UniProt Q14432); assay type: functional
cGMP-inhibited 3',5'-cyclic phosphodiesterase 3A, sequence (Q14432 whole entry): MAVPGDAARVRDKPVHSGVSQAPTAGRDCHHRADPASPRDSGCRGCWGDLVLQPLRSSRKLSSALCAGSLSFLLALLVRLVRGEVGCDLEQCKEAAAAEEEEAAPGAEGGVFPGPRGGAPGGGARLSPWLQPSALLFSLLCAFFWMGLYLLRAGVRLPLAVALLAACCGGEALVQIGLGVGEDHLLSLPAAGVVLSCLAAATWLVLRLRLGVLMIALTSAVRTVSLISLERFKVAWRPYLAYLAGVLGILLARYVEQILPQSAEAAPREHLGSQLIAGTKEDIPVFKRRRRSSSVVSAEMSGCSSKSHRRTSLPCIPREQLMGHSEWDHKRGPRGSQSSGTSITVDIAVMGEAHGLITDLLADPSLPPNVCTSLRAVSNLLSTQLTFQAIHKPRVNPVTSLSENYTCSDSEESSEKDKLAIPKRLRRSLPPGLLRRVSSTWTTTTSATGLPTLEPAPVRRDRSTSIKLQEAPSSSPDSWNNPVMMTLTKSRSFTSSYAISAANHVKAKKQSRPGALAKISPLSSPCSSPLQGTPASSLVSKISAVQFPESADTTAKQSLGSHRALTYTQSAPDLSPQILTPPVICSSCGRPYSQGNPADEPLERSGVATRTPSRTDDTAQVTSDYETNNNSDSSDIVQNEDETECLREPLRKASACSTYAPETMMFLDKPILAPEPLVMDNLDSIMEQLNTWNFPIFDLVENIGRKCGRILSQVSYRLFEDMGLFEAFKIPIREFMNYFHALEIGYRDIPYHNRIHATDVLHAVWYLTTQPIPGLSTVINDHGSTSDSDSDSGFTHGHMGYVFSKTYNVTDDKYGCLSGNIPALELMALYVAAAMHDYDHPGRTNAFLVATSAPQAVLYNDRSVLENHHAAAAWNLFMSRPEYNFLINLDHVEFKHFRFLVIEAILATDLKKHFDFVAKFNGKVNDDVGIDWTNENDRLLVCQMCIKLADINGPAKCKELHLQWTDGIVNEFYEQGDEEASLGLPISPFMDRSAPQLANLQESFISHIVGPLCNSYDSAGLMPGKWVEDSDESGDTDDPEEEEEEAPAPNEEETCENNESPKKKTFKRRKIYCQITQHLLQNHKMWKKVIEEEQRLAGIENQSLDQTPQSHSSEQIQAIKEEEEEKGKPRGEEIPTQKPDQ

[5] = target: 5-hydroxytryptamine receptor 2B (Homo sapiens, UniProt P41595); assay type: functional, cell-based
5-hydroxytryptamine receptor 2B, sequence (P41595 whole entry): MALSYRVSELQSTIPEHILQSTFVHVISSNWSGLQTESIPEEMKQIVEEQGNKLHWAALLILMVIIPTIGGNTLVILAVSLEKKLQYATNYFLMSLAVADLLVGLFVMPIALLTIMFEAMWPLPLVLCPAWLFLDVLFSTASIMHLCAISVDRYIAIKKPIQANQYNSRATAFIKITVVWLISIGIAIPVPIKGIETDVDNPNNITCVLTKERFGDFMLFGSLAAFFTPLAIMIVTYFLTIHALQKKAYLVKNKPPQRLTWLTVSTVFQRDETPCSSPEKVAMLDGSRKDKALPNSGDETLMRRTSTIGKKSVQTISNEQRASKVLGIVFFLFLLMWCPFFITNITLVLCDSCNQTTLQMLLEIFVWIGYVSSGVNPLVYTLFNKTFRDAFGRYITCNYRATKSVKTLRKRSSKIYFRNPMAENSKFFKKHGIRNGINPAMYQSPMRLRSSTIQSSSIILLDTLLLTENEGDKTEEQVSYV

[6] = target: Kappa-type opioid receptor (Homo sapiens, UniProt P41145)
Kappa-type opioid receptor, sequence (P41145 whole entry): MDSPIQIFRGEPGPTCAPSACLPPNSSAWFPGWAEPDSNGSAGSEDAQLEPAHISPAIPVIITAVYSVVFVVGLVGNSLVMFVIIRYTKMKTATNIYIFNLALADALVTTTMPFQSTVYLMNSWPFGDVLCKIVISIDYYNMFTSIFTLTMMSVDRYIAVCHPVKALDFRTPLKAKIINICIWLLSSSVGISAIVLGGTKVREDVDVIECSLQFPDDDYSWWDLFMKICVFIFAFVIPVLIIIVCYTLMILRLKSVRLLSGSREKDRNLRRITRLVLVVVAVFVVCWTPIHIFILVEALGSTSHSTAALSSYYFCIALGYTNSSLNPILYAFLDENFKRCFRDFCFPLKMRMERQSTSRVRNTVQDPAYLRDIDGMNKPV

Vasopressin V2 receptor = Vasopressin V2 receptor (Homo sapiens, UniProt P30518)
Vasopressin V2 receptor, sequence (P30518 whole entry): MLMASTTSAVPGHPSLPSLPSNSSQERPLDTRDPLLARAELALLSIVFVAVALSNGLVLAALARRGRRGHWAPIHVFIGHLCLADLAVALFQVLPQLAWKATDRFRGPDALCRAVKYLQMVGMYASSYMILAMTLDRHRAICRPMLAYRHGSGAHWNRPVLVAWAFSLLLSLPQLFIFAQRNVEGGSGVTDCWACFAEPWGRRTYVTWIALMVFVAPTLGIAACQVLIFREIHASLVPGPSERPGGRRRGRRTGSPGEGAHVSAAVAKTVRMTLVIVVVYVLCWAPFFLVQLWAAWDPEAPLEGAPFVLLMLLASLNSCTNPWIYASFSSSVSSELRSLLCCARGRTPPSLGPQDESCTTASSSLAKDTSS

Glucocorticoid receptor = target: T2, Glucocorticoid receptor (Homo sapiens, UniProt P04150)
T2 sequence (P04150 whole entry): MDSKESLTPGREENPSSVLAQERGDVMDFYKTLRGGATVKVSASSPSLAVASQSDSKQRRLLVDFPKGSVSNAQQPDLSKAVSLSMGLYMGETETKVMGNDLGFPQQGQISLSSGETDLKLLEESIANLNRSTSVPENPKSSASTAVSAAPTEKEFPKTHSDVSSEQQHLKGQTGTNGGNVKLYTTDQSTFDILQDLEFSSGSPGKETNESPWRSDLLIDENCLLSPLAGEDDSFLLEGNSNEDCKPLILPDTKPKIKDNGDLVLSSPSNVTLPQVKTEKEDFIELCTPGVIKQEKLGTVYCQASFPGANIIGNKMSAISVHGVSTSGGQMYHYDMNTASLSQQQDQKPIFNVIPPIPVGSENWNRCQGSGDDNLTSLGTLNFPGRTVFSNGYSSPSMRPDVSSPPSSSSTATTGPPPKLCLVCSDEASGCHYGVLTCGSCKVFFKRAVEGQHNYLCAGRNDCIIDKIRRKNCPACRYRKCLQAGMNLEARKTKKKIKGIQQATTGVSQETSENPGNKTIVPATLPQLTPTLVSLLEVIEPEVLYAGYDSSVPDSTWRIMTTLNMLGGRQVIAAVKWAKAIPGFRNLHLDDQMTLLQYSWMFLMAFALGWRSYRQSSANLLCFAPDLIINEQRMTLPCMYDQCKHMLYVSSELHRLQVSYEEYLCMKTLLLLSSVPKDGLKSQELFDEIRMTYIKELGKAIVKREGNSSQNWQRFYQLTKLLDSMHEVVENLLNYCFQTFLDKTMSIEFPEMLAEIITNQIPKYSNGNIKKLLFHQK

Progesterone receptor = target: T3, Progesterone receptor (Homo sapiens, UniProt P06401); assay type: functional
T3 sequence (P06401 whole entry): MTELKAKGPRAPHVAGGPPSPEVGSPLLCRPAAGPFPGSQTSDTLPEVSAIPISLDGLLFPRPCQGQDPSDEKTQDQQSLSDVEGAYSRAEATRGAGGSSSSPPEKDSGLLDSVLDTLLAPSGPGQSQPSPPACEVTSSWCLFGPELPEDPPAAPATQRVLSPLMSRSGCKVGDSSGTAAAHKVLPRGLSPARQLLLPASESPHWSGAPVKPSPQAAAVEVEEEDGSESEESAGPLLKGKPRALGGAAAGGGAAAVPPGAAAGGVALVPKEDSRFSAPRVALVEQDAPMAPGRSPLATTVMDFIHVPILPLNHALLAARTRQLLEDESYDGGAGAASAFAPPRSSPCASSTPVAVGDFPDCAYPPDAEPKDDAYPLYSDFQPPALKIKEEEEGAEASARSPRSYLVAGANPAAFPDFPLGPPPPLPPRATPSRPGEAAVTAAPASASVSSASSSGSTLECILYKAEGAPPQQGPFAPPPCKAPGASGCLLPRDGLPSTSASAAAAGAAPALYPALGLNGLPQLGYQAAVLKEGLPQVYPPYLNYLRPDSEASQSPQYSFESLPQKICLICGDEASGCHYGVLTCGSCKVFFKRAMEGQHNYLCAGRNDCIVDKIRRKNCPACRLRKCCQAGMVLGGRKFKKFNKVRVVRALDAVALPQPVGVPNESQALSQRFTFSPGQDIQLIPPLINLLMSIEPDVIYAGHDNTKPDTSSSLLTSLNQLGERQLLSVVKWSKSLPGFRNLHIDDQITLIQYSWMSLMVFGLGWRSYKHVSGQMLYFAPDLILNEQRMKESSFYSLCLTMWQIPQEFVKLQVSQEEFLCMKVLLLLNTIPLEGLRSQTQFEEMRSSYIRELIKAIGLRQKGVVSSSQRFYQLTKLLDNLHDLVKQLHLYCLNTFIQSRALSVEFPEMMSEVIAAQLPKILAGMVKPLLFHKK

[7] = target: T4, Neuropeptide Y receptor type 1 (Homo sapiens, UniProt P25929)
T4 sequence (P25929 whole entry): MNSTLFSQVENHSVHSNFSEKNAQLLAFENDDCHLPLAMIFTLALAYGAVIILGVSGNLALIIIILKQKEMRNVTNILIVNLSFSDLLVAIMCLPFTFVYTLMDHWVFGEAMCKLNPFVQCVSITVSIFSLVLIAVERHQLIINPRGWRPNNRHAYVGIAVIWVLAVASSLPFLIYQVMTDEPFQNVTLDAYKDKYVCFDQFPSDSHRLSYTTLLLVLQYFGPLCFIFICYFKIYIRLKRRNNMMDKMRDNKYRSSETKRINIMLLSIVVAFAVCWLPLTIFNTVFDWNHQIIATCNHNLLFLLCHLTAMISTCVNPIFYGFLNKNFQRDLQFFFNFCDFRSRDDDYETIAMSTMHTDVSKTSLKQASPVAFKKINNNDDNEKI
Also: assay procedure not described here.

Growth hormone secretagogue receptor type 1, sequence (Q92847 whole entry): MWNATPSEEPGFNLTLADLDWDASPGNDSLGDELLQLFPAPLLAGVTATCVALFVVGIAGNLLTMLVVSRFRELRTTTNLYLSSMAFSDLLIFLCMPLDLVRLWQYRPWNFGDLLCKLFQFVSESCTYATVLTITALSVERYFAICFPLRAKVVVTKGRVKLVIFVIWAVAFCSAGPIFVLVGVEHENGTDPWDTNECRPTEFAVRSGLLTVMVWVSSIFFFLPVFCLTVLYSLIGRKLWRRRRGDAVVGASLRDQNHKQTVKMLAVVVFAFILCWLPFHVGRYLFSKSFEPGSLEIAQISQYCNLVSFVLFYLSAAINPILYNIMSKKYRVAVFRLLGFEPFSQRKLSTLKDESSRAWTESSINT

Compound | AC50 [1] [µM] | AC50 [2] [µM] | AC50 [3] [µM] | AC50 [4] [µM] | AC50 [5] [µM] | AC50 [6] [µM] | AC50 (Vasopressin V2 receptor) [µM] | AC50 (Glucocorticoid receptor) [µM] | AC50 (Progesterone receptor) [µM] | AC50 [7] [µM]
CC(C)N(CCCCOCC(=O)O)c1cnc(-c2ccccc2)c(-c2ccccc2)n1 | > 30 | > 30 | > 30 | > 30 | > 30 | > 30 | > 30 | > 30 | > 30 | > 30
C[N+]12CCC(CC1)C(OC(=O)C(O)(c1ccccc1)c1ccccc1)C2 (stereo not given) | > 30 | > 30 | > 30 | > 30 | > 30 | > 30 | > 30 | > 30 | > 30 | > 30
CC(=O)c1ccc(S(=O)(=O)NC(=O)NC2CCCCC2)cc1 [ACETOHEXAMIDE] | > 10 | > 10 | > 10 | > 30 | > 30 | > 10 | > 10 | > 10 | > 10 | > 10
COc1cc(C)c(/C=C/C(C)=C/C=C/C(C)=C/C(=O)O)c(C)c1C [ACITRETIN] | > 10 | > 10 | > 10 | > 10 | > 10 | > 10 | > 10 | > 30 | > 30 | > 10
COc1ccc(C2C(=O)c3ccccc3C2=O)cc1 [ANISINDIONE] | > 10 | > 10 | > 10 | > 30 | > 10 | > 10 | > 10 | > 30 | > 30 | > 10
O=C(O)CCNC(=O)c1ccc(/N=N/c2ccc(O)c(C(=O)O)c2)cc1 [BALSALAZIDE] | > 30 | > 30 | > 30 | > 30 | > 30 | > 30 | 36.9 | > 30 | > 30 | > 30
NS(=O)(=O)c1cc2c(cc1Cl)N=C(CSCc1ccccc1)NS2(=O)=O [BENZTHIAZIDE] | > 10 | 1.5 | > 10 | > 30 | > 10 | > 10 | > 10 | > 30 | > 30 | > 10
O=C(CCCN1CCC(O)(c2ccc(Br)cc2)CC1)c1ccc(F)cc1 [BROMPERIDOL] | 6.9 | – | – | > 30 | > 30 | 10 | > 30 | > 30 | > 30 | > 30
Clc1ccc(CCC(Cn2ccnc2)Sc2c(Cl)cccc2Cl)cc1 (stereo not given) [BUTOCONAZOLE] | > 30 | > 30 | > 30 | > 30 | > 30 | 1.8 | > 30 | 18 | > 30 | > 30
CO/N=C(\C(=O)N[C@@H]1C(=O)N2C(C(=O)O)=CCS[C@H]12)c1csc(N)n1 [CEFTIZOXIME] | > 30 | > 30 | > 30 | > 30 | > 30 | – | > 30 | > 30 | > 30 | > 30
CO/N=C(\C(=O)N[C@@H]1C(=O)N2C(C(=O)O)=C(CSc3nc(=O)c(=O)[nH]n3C)CS[C@H]12)c1csc(N)n1 [CEFTRIAXONE] | > 30 | > 30 | > 30 | > 30 | > 30 | > 30 | > 30 | > 30 | > 30 | > 30
CC(CN(C)C)C(C)(O)Cc1ccc(Cl)cc1 (stereo not given) [CLOBUTINOL] | > 30 | > 10 | > 30 | > 30 | > 10 | > 10 | > 30 | > 30 | > 30 | > 30
CCN1CC(CCN2CCOCC2)C(c2ccccc2)(c2ccccc2)C1=O (stereo not given) [DOXAPRAM] | > 30 | > 30 | > 30 | > 30 | > 30 | > 30 | > 30 | > 30 | > 30 | > 30
CCc1cc2c(s1)-n1c(C)nnc1CN=C2c1ccccc1Cl [ETIZOLAM] | > 30 | > 30 | > 30 | > 30 | > 30 | 2.5 | > 30 | > 30 | > 30 | > 30
CC/C=C\C/C=C\C/C=C\C/C=C\C/C=C\CCCC(=O)OCC [ICOSAPENT ETHYL] | > 30 | > 30 | > 30 | > 30 | > 30 | > 30 | > 10 | > 30 | > 30 | > 30
Cc1ccnc2c1NC(=O)c1cccnc1N2C1CC1 [NEVIRAPINE] | > 30 | > 10 | > 10 | 4.5 | > 10 | > 10 | > 30 | > 30 | – | > 30
CCOC(=O)c1ccc(C#Cc2ccc3c(c2)C(C)(C)CCS3)nc1 [TAZAROTENE] | > 30 | > 10 | > 30 | > 30 | > 10 | > 10 | > 30 | > 30 | – | > 30
